# Experimental data taken from publication doi:10.1101/2022.02.24.481826v2 (biorxiv, 2022).
# Biological target: T1, AMPK4 (Arabidopsis thaliana, UniProt O82514)
# T1 sequence (O82514 2-246): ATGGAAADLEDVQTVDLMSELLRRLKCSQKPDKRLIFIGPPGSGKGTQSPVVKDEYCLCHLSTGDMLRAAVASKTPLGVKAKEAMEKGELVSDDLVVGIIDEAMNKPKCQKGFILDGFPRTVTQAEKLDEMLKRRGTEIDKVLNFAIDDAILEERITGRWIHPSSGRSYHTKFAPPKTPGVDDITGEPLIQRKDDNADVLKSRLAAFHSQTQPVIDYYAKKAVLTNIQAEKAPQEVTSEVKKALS
# Experiment: coupled pyruvate kinase / lactate dehydrogenase assay, […] nm
# Assay type: biochemical
# Conditions: 1 mM AMP, 1 mM ATP
compound,measurement,value
Nc1ncnc2c1ncn2[C@@H]1O[C@H](COP(=O)(O)O)[C@@H](O)[C@H]1O [AMP],"coupled pyruvate kinase / lactate dehydrogenase assay, 340 nm",Analogous data for AMPK4
